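How tested: cells in 96-well plates exposed to compound for 48 hours at five concentrations. TGI denotes the concentration required for complete inhibition of growth.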
Tests used:
Experiment in all cases: growth of human tumour cells (NCI), 48 h
[1] = test system: DMS 114 small cell lung
[2] = test system: HT29 colon
[3] = test system: UO-31 renal
[4] = test system: M14 melanoma
[5] = test system: MALME-3M melanoma
[6] = test system: NCI-H23 lung
[7] = test system: UACC-257 melanoma
[8] = test system: OVCAR-5 ovarian
[9] = test system: A498 renal
[10] = test system: A549 NSCLC
[11] = test system: NCI-H226 lung
[12] = test system: COLO 205 colon
[13] = test system: DMS 273 small cell lung
[14] = test system: XF 498 CNS
[15] = test system: KM12 colon
[16] = test system: 786-0 renal
[17] = test system: SR leukemia
[18] = test system: HOP-62 NSCLC
[19] = test system: CAKI-1 renal
[20] = test system: NCI-H460 lung
[21] = test system: SF-295 CNS
[22] = test system: SW-620 colon
[23] = test system: HCT-116 colon
[24] = test system: RPMI-8226 leukemia
[25] = test system: SN12C renal
[26] = test system: HOP-18 NSCLC
[27] = test system: SK-MEL-5 melanoma
[28] = test system: EKVX NSCLC
[29] = test system: ACHN renal
[30] = test system: U251 CNS
[31] = test system: HCC-2998 colon
[32] = test system: IGROV1 ovarian
[33] = test system: HL-60(TB) leukemia
[34] = test system: LOX IMVI melanoma
[35] = test system: OVCAR-8 ovarian
[36] = test system: SNB-75 CNS
[37] = test system: SNB-78 CNS
[38] = test system: SK-OV-3 ovarian
[39] = test system: SF-268 CNS
[40] = test system: UACC-62 melanoma
[41] = test system: SF-539 CNS
[42] = test system: K-562 leukemia
[43] = test system: DLD-1 colon
[44] = test system: MOLT-4 leukemia
[45] = test system: CCRF-CEM leukemia
[46] = test system: SNB-19 CNS
[47] = test system: LXFL 529 NSCLC
[48] = test system: NCI-H522 lung
[49] = test system: TK-10 renal
[50] = test system: M19-MEL melanoma
[51] = test system: OVCAR-4 ovarian
[52] = test system: HCT-15 colon
[53] = test system: RXF 393 renal
[54] = test system: OVCAR-3 ovarian
[55] = test system: KM20L2 colon
[56] = test system: SK-MEL-28 melanoma
[57] = test system: HOP-92 NSCLC
[58] = test system: SK-MEL-2 melanoma

`CC(C)NCCCC(C)Nc1ccnc2ccc3nn(C)nc3c12` (stereo unspecified) was tested, and the TGI [1] was greater than 100 µM, the TGI [2] was greater than 100 µM and the TGI [3] was greater than 100 µM. For the same molecule, the TGI [4] was greater than 100 µM, the TGI [5] was greater than 100 µM and the TGI [6] was greater than 100 µM. It also gave a TGI [7] greater than 100 µM, a TGI [8] greater than 100 µM and a TGI [9] greater than 100 µM. The TGI [10] was greater than 100 µM, the TGI [11] was greater than 100 µM and the TGI [12] was greater than 100 µM. The TGI [13] was greater than 100 µM, the TGI [14] was greater than 100 µM and the TGI [15] was greater than 100 µM. It also gave a TGI [16] greater than 100 µM, a TGI [17] greater than 100 µM and a TGI [18] greater than 100 µM. For the same molecule, the TGI [19] was greater than 100 µM, the TGI [20] was greater than 100 µM and the TGI [21] was greater than 100 µM. It also gave a TGI [22] greater than 100 µM, a TGI [23] greater than 100 µM and a TGI [24] greater than 100 µM. It also gave a TGI [25] greater than 100 µM, a TGI [26] greater than 100 µM and a TGI [27] greater than 100 µM. The TGI [28] was greater than 100 µM, the TGI [29] was greater than 100 µM and the TGI [30] was greater than 100 µM. For the same molecule, the TGI [31] was greater than 100 µM, the TGI [32] was greater than 100 µM and the TGI [33] was greater than 100 µM. It also gave a TGI [34] greater than 100 µM, a TGI [35] greater than 100 µM and a TGI [36] greater than 100 µM. It also gave a TGI [37] greater than 100 µM, a TGI [38] greater than 100 µM and a TGI [39] greater than 100 µM. The TGI [40] was greater than 100 µM, the TGI [41] was greater than 100 µM and the TGI [42] was greater than 100 µM. For the same molecule, the TGI [43] was greater than 100 µM, the TGI [44] was greater than 100 µM and the TGI [45] was greater than 100 µM. The TGI [46] was greater than 100 µM, the TGI [47] was greater than 100 µM and the TGI [48] was greater than 100 µM. It also gave a TGI [49] greater than 100 µM and a TGI [50] greater than 100 µM.

With `O=[N+]([O-])c1ccc(C2=Nn3c(nnc3-c3ccccc3)SC2)o1` the TGI [1] was 38.8 µM, the TGI [2] was 52.8 µM and the TGI [51] was 41.5 µM. The TGI [4] was 32 µM, the TGI [5] was 47.5 µM and the TGI [52] was 38.2 µM. For the same molecule, the TGI [6] was 42.8 µM, the TGI [7] was 36.5 µM and the TGI [8] was 65.8 µM. For the same molecule, the TGI [9] was greater than 100 µM, the TGI [10] was greater than 100 µM and the TGI [11] was greater than 100 µM. The TGI [12] was 49.9 µM, the TGI [13] was 48.7 µM and the TGI [14] was 38.9 µM. For the same molecule, the TGI [15] was 42.4 µM, the TGI [16] was 40.7 µM and the TGI [53] was 53.5 µM. For the same molecule, the TGI [18] was greater than 100 µM, the TGI [54] was 31.8 µM and the TGI [19] was 35 µM. The TGI [20] was 41.6 µM, the TGI [21] was 31.8 µM and the TGI [22] was 40.5 µM. The TGI [23] was 35.6 µM, the TGI [24] was greater than 100 µM and the TGI [25] was 32.4 µM. It also gave a TGI [26] of 34.8 µM, a TGI [27] of 32.6 µM and a TGI [28] greater than 100 µM. For the same molecule, the TGI [29] was 33.8 µM, the TGI [30] was 33.7 µM and the TGI [31] was 35.7 µM. It also gave a TGI [32] of 47.6 µM, a TGI [33] of 37.8 µM and a TGI [35] of 45.9 µM. For the same molecule, the TGI [36] was 38.9 µM, the TGI [55] was 53.5 µM and the TGI [37] was 44.7 µM. The TGI [38] was greater than 100 µM, the TGI [39] was 42.8 µM and the TGI [56] was greater than 100 µM. The TGI [40] was 36.3 µM, the TGI [41] was 39 µM and the TGI [42] was greater than 100 µM. For the same molecule, the TGI [43] was 30.2 µM, the TGI [44] was 70.8 µM and the TGI [45] was 20.2 µM. For the same molecule, the TGI [57] was 34.1 µM, the TGI [46] was greater than 100 µM and the TGI [58] was 49 µM. For the same molecule, the TGI [47] was 29.9 µM, the TGI [49] was 34.5 µM and the TGI [50] was 41.1 µM.

Work on `O/N=C1/C(=C/c2ccc(Cl)c(Cl)c2)CCCC1C(NO)c1ccc(Cl)c(Cl)c1` (stereo unspecified) yielded a TGI [1] of 37.3 µM, a TGI [2] of 32.1 µM and a TGI [51] of 26.7 µM. It also gave a TGI [3] of 35.7 µM, a TGI [4] of 34.6 µM and a TGI [5] of 44.4 µM. It also gave a TGI [52] of 37.2 µM, a TGI [6] of 35.6 µM and a TGI [7] of 34.1 µM. For the same molecule, the TGI [9] was 27.4 µM, the TGI [10] was 41.3 µM and the TGI [12] was 35.7 µM. It also gave a TGI [13] of 36 µM, a TGI [14] of 33.9 µM and a TGI [15] of 31.9 µM. The TGI [16] was 42.4 µM, the TGI [53] was 43.3 µM and the TGI [18] was 48.2 µM. It also gave a TGI [54] of 27.8 µM, a TGI [19] of 34 µM and a TGI [20] of 40 µM. It also gave a TGI [22] of 36 µM, a TGI [23] of 30.3 µM and a TGI [24] of 53.6 µM. It also gave a TGI [25] of 35.2 µM, a TGI [26] of 30.5 µM and a TGI [27] of 35.3 µM. The TGI [28] was 42.9 µM, the TGI [29] was 33 µM and the TGI [30] was 34.2 µM. It also gave a TGI [31] of 36.8 µM, a TGI [32] of 38.5 µM and a TGI [33] of 39 µM. It also gave a TGI [35] of 36.7 µM, a TGI [36] of 31.1 µM and a TGI [55] of 35.3 µM. The TGI [37] was 37.7 µM, the TGI [38] was 39.1 µM and the TGI [39] was 45.7 µM. For the same molecule, the TGI [56] was 34.5 µM, the TGI [40] was 35 µM and the TGI [41] was 33.2 µM. For the same molecule, the TGI [42] was 63.6 µM, the TGI [43] was 37 µM and the TGI [44] was 33.8 µM. The TGI [45] was 46.1 µM, the TGI [46] was 33.1 µM and the TGI [58] was 38.5 µM. For the same molecule, the TGI [47] was 29.5 µM, the TGI [48] was 25 µM and the TGI [49] was 36.3 µM. For the same molecule, the TGI [50] was 33.8 µM.
